Results on 14 compounds are retold here after patent publication US9586948B2, “Inhibitors of IRAK4 activity” (MERCK SHARP & DOHME CORP., priority 2012, dated 2017).

pIC50: −log10 of the molar value.

A word on the pIC50: it is the IC50 on a negative log10 scale, so that one unit is a factor of ten.

The target in this assay is GST tagged IRAK4 (Homo sapiens (Human), UniProt Q9NWZ3). As to the kind of experiment: Determination of IRAK4 kinase activity (IMAP fluorescence polarization). The class given is biochemical. The conditions noted are these: 0.5 nM GST tagged IRAK4, 100 nM fluorescent peptide substrate RP7030, 100 μM ATP, 30 minutes at 25° C. Here is the method: The kinase activity of IRAK4 is determined by its ability to catalyze the phosphorylation of a fluorescent polypeptide substrate. The extent of phosphorylation is measured using IMAP technology (Molecular Devices) where the phosphorylated fluorescent substrate binds to the large M(III)-based nanoparticles which reduces the rotational speed of the substrate and thus increases its fluorescent polarization (FP).
Sequence of GST tagged IRAK4 (Q9NWZ3 whole entry): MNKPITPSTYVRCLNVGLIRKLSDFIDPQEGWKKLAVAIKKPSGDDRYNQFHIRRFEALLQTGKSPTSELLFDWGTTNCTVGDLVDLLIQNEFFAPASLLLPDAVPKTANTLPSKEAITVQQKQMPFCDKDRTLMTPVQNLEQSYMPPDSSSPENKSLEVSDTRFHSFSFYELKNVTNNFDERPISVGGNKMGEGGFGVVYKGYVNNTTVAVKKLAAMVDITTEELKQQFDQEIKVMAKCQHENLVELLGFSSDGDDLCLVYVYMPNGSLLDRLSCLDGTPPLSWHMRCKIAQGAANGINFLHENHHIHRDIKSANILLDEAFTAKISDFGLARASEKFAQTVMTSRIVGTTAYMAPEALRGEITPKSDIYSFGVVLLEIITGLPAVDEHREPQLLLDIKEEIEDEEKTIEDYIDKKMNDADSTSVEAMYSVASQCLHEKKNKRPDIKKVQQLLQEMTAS
Procedure: A 20 μl reaction mixture contains 10 mM TriHCl, pH 7.2, 0.5 nM GST tagged IRAK4 (SignalChem), 100 nM fluorescent peptide substrate (RP7030, Molecular Devices), 100 μM ATP, 1 mM DTT, 1 mM MgCl2, and 0.01% Tween 20. The reaction is initiated by the addition of ATP. After incubation for 30 minutes at 25° C., 60 μl of Progressive IMAP Reagent (Molecular Devices) is added to stop the reaction. Change in RP7030's FP is determined by a FP reader (Analyst HT, LJL BioSystems).
`CN(C)CCCCCNC(=O)c1nn(C)cc1NC(=O)c1cccc(-c2ccnc(NCC3CC3)c2)n1` [Example 37, 2′-((cyclopropylmethyl)amino)-N-(3-((5-(dimethylamino)pentyl)carbamoyl)-1-methyl-1H-pyrazol-4-yl)-[2,4′-bipyridine]-6-carboxamide]: the negative-log IC50 (pIC50) was 5.66.
Regarding `Cn1cc(NC(=O)c2cccc(-c3ccnc(NCC4CC4)c3)n2)c(C(=O)NCCc2ccccn2)n1` [Example 38, 2′-((cyclopropylmethyl)amino)-N-(1-methyl-3-((2-(pyridin-2-yl)ethyl)carbamoyl)-1H-pyrazol-4-yl)-[2,4′-bipyridine]-6-carboxamide], the pIC50 is 5.30. Against the preceding compound, the pIC50 is 0.36 log units lower.
The figure for `CN1CCN(C(=O)c2nn(C)cc2NC(=O)c2cccc(-c3ccnc(NCC4CC4)c3)n2)CC1` [Example 39, 2′-((cyclopropylmethyl)amino)-N-(1-methyl-3-(4-methylpiperazine-1-carbonyl)-1H-pyrazol-4-yl)-[2,4′-bipyridine]-6-carboxamide] is 5.54.
For the compound `CN(C)CCCNC(=O)c1nn(C)cc1NC(=O)c1cccc(-c2ccnc(NCC3CC3)c2)n1` [Example 40, 2′-((cyclopropylmethyl)amino)-N-(3-((3-(dimethylamino)propyl)carbamoyl)-1-methyl-1H-pyrazol-4-yl)-[2,4′-bipyridine]-6-carboxamide], the pIC50 is 6.27.
To `Cn1cc(NC(=O)c2cccc(-c3ccnc(NCC4CC4)c3)n2)c(C(=O)N2CC(CN)C2)n1` [Example 42, N-(3-(3-(aminomethyl)azetidine-1-carbonyl)-1-methyl-1H-pyrazol-4-yl)-2′-((cyclopropylmethyl)amino)-[2,4′-bipyridine]-6-carboxamide] belongs 6.72; to `Cn1cc(NC(=O)c2cccc(-c3ccnc(NCC4CC4)c3)n2)c(C(=O)Nc2cncnc2)n1` [Example 43, 2′-((cyclopropylmethyl)amino)-N-(1-methyl-3-(pyrimidin-5-ylcarbamoyl)-1H-pyrazol-4-yl)-[2,4′-bipyridine]-6-carboxamide], 5.80; to `Cn1cc(NC(=O)c2cccc(-c3ccnc(NCC4CC4)c3)n2)c(C(=O)NCCc2cnccn2)n1` [Example 44, 2′-((cyclopropylmethyl)amino)-N-(1-methyl-3-((2-(pyrazin-2-yl)ethyl)carbamoyl)-1H-pyrazol-4-yl)-[2,4′-bipyridine]-6-carboxamide], 5.57.
For `Cn1cc(NC(=O)c2cccc(-c3ccnc(NCC4CC4)c3)n2)c(C(=O)NCC2CCS(=O)(=O)C2)n1` (centres unmarked) [Example 45, 2′-((cyclopropylmethyl)amino)-N-(3-(((1,1-dioxidotetrahydrothiophen-3-yl)methyl)carbamoyl)-1-methyl-1H-pyrazol-4-yl)-[2,4′-bipyridine]-6-carboxamide], the pIC50 was 5.44. The pIC50 values of the last two compounds are within 0.2 log units of each other.
`CN(C)[C@H]1CN(C(=O)c2nn(C)cc2NC(=O)c2cccc(-c3ccnc(NCC4CC4)c3)n2)C[C@@H]1O` [Example 46, 2′-((cyclopropylmethyl)amino)-N-(3-((3S,4S)-3-(dimethylamino)-4-hydroxypyrrolidine-1-carbonyl)-1-methyl-1H-pyrazol-4-yl)-[2,4′-bipyridine]-6-carboxamide] gave a pIC50 of 6.73.
On to `Cn1cc(NC(=O)c2cccc(-c3ccnc(NCC4CC4)c3)n2)c(C(=O)NCc2ccncn2)n1` [Example 47, 2′-((cyclopropylmethyl)amino)-N-(1-methyl-3-((pyrimidin-4-ylmethyl)carbamoyl)-1H-pyrazol-4-yl)-[2,4′-bipyridine]-6-carboxamide], for which the pIC50 was 5.36.
To `Cn1cc(NC(=O)c2cccc(-c3ccnc(NCC4CC4)c3)n2)c(C(=O)NCc2nncs2)n1` [Example 48, N-(3-(((1,3,4-thiadiazol-2-yl)methyl)carbamoyl)-1-methyl-1H-pyrazol-4-yl)-2′-((cyclopropylmethyl)amino)-[2,4′-bipyridine]-6-carboxamide] belongs 5.61; to `CN1CCCC(CNC(=O)c2nn(C)cc2NC(=O)c2cccc(-c3ccnc(NCC4CC4)c3)n2)C1` (centres unmarked) [Example 49, 2′-((cyclopropylmethyl)amino)-N-(1-methyl-3-(((1-methylpiperidin-3-yl)methyl)carbamoyl)-1H-pyrazol-4-yl)-[2,4′-bipyridine]-6-carboxamide], 6.59.
To `Cn1cc(NC(=O)c2cccc(-c3ccnc(NCC4CC4)c3)n2)c(C(=O)NCCn2cccn2)n1` [Example 50, N-(3-((2-(1H-pyrazol-1-yl)ethyl)carbamoyl)-1-methyl-1H-pyrazol-4-yl)-2′-((cyclopropylmethyl)amino)-[2,4′-bipyridine]-6-carboxamide] belongs 5.57; to `Cn1cc(NC(=O)c2cccc(-c3ccnc(NCC4CC4)c3)n2)c(C(=O)NC2CCOC2)n1` (centres unmarked) [Example 51, 2′-((cyclopropylmethyl)amino)-N-(1-methyl-3-((tetrahydrofuran-3-yl)carbamoyl)-1H-pyrazol-4-yl)-[2,4′-bipyridine]-6-carboxamide], 5.64.
